The results in this text go back to PubChem BioAssay (NCI).

Values joined by “and” are separate entries in the source; they are usually repeats but may differ in a detail not shown here. Equal values may be shown once.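 Briefly, cells in 96-well plates were exposed to five compound concentrations for 48 h, and endpoints were estimated by linear interpolation. Here, GI50 denotes the concentration required for 50% inhibition of growth. TGI: concentration producing complete growth inhibition.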 Where only a bound is given, the exact number is not on record here.

Test systems include MDA-MB-231 breast; K-562 leukemia; MALME-3M melanoma; COLO 205 colon; CCRF-CEM leukemia; HCT-116 colon; BT-549 breast; UACC-62 melanoma; A549 NSCLC; RXF 393 renal.
Test in all cases: inhibition of tumour cell growth, NCI panel, 48 h

As for `C=CC(C)(O)CCC1C(=C)C(O)CC2C(C)(C)CCCC12C` (stereo not given), the TGI in the experiment on MDA-MB-231 breast is 31.8 µM; in the experiment with K-562 leukemia, 33.2 µM; in the experiment with MALME-3M melanoma, 34.8 µM; in the experiment with COLO 205 colon, 29.4 µM; in the experiment on CCRF-CEM leukemia, 45.4 µM; in the experiment on HCT-116 colon, 31.8 µM. Also, the TGI with BT-549 breast was determined as 32.4 µM; in the experiment on UACC-62 melanoma, 29.8 µM; in the experiment on A549 NSCLC, 54.9 µM; in the experiment with RXF 393 renal, 29.5 µM.
Turning to `Cc1ccc(C(=O)N2C/C(=C/c3ccccc3)C(=O)/C(=C/c3ccccc3)C2)cc1`, the GI50 in the experiment on MDA-MB-231 breast is 4.61 µM; in the experiment with K-562 leukemia, 1.66 µM; in the experiment with MALME-3M melanoma, 30.6 µM; with COLO 205 colon, 8.7 µM; in the experiment on CCRF-CEM leukemia, 2.23 µM; in the experiment with HCT-116 colon it was 0.226 µM. Also, the GI50 in the experiment on BT-549 breast was 3.42 µM; in the experiment with UACC-62 melanoma it was 4.49 µM; in the experiment on A549 NSCLC, 63.3 µM; in the experiment on RXF 393 renal, 2.2 µM. Besides, the TGI was greater than 77.2 µM in the experiment with MDA-MB-231 breast; greater than 100 µM with K-562 leukemia; greater than 100 µM in the experiment on MALME-3M melanoma; greater than 100 µM in the experiment with COLO 205 colon; greater than 100 µM in the experiment with CCRF-CEM leukemia; 0.548 µM with HCT-116 colon. For the same molecule, the TGI is 15.8 µM with BT-549 breast, 25.8 µM with UACC-62 melanoma, greater than 100 µM with A549 NSCLC and 6.39 µM with RXF 393 renal.
Take `N=C(N)c1ccc(OCCCCCOc2ccc(C(=N)N)cc2)cc1`: the GI50 is 8.69 µM in the experiment on MDA-MB-231 breast; 2.8 µM in the experiment with K-562 leukemia; 1.81 µM in the experiment with MALME-3M melanoma; 2.18 µM and 5.19 µM and 11.9 µM in the experiment with COLO 205 colon; 23.7 µM and 11.1 µM and 45.1 µM with CCRF-CEM leukemia; 4.59 µM with HCT-116 colon. Moreover, the GI50 was 6.65 µM and 3.41 µM and 11.1 µM in the experiment on BT-549 breast; 2.02 µM with UACC-62 melanoma; 0.83 µM in the experiment on A549 NSCLC; 6.75 µM with RXF 393 renal. For the same molecule, the TGI in the experiment with MDA-MB-231 breast was > 50 µM and 44.4 µM; in the experiment on K-562 leukemia, 32.7 µM and 15.4 µM and > 100 µM; in the experiment on MALME-3M melanoma, 8.4 µM and 35.3 µM; with COLO 205 colon, 8.57 µM and 18.4 µM and 29.1 µM; in the experiment with CCRF-CEM leukemia it was > 50 µM and 60.1 µM and > 100 µM; in the experiment with HCT-116 colon it was > 50 µM and 37.8 µM and > 100 µM. In addition, the TGI with BT-549 breast is 14.1 µM and 16 µM and 25.3 µM; in the experiment on UACC-62 melanoma, 9.38 µM and 23.6 µM and 29.6 µM; in the experiment on A549 NSCLC, > 50 µM and 37.1 µM and > 100 µM; in the experiment on RXF 393 renal, 17.5 µM and 38.6 µM.
Turning to `COc1ccc(C(=O)/C=C/c2ccc(OCc3ccccc3)c(OC)c2)cc1OC`, the GI50 in the experiment on MDA-MB-231 breast is 3.7 µM; in the experiment with K-562 leukemia, 3.4 µM; in the experiment with MALME-3M melanoma, 12.7 µM; in the experiment with COLO 205 colon, 3.53 µM; in the experiment with CCRF-CEM leukemia, 3.04 µM; in the experiment on HCT-116 colon, 3.19 µM. For the same molecule, the GI50 in the experiment with BT-549 breast was 2.79 µM; in the experiment on UACC-62 melanoma it was 4.01 µM; in the experiment with A549 NSCLC it was 3.05 µM; in the experiment on RXF 393 renal, 2.32 µM. Besides, the TGI with MDA-MB-231 breast is greater than 100 µM; in the experiment with K-562 leukemia, greater than 100 µM; in the experiment on MALME-3M melanoma, greater than 100 µM; in the experiment on COLO 205 colon, 22.6 µM; in the experiment with CCRF-CEM leukemia it was 71.2 µM; in the experiment on HCT-116 colon, greater than 100 µM. The TGI is 8.11 µM in the experiment with BT-549 breast, greater than 100 µM in the experiment with UACC-62 melanoma, 29.6 µM with A549 NSCLC and 5.9 µM in the experiment with RXF 393 renal.
As for `Cc1ccccc1CNc1c2ccccc2nc2ccccc12`, the GI50 with MDA-MB-231 breast is 1.7 µM; in the experiment on K-562 leukemia it was 2.32 µM; with MALME-3M melanoma, 1.66 µM; in the experiment on COLO 205 colon it was 1.6 µM; with CCRF-CEM leukemia it was 1.97 µM; in the experiment with HCT-116 colon, 1.11 µM. The GI50 with BT-549 breast is 2.18 µM; with UACC-62 melanoma it was 1.83 µM; with A549 NSCLC it was 2.09 µM; in the experiment on RXF 393 renal it was 1.63 µM. The TGI stood at 4.19 µM with MDA-MB-231 breast; 11.4 µM in the experiment on K-562 leukemia; 3.11 µM with MALME-3M melanoma; 3.5 µM with COLO 205 colon; 12.6 µM in the experiment with CCRF-CEM leukemia; 8.31 µM with HCT-116 colon. Further, the TGI in the experiment on BT-549 breast was 6.15 µM; with UACC-62 melanoma, 4.28 µM; in the experiment with A549 NSCLC it was 5.22 µM; in the experiment on RXF 393 renal, 3.14 µM.
Turning to `CC(C)C/C(=N\NC(=O)c1ccncc1)c1cc(Cl)ccc1O`, the GI50 was 0.622 µM with MDA-MB-231 breast; 0.516 µM in the experiment on K-562 leukemia; 1.65 µM with MALME-3M melanoma; 0.354 µM in the experiment with COLO 205 colon; 0.0864 µM in the experiment with CCRF-CEM leukemia; 0.244 µM with HCT-116 colon. Moreover, the GI50 in the experiment on BT-549 breast is 0.922 µM; in the experiment with UACC-62 melanoma, 0.451 µM; with A549 NSCLC, 0.498 µM; in the experiment with RXF 393 renal, 2.37 µM. In addition, the TGI was greater than 46 µM in the experiment with MDA-MB-231 breast; greater than 100 µM in the experiment on K-562 leukemia; 16.7 µM in the experiment on MALME-3M melanoma; 14.4 µM in the experiment on COLO 205 colon; greater than 58.5 µM with CCRF-CEM leukemia; 11 µM with HCT-116 colon. The TGI in the experiment with BT-549 breast is greater than 25.6 µM; with UACC-62 melanoma, 8.08 µM; in the experiment on A549 NSCLC, greater than 42.6 µM; in the experiment on RXF 393 renal, greater than 41 µM.
